Data on 1 compound can be found in patent US20040034009A1, “1,6-Fused uracil derivatives as matrix metalloproteinase inhibitors” (priority 2002, published 2004).

In the experiment the target is human MMP-13 catalytic domain (hMMP-13CD) (Homo sapiens, UniProt P45452). As to the kind of experiment: Inhibition of MMP-13 catalytic domain (thiopeptolide substrate assay). The format is biochemical. An excerpt:
The assays measure the amount by which a test compound reduces the hydrolysis of a thiopeptolide substrate catalyzed by a matrix metalloproteinase enzyme. Such assays are described in detail by Ye et al., in Biochemistry, 1992;31(45):11231-11235, which is incorporated herein by reference. One such assay is described below in Biological Method 1.
Thiopeptolide substrates show virtually no decomposition or hydrolysis at or below neutral pH in the absence of a matrix metalloproteinase enzyme. A typical thiopeptolide substrate commonly utilized for assays is Ac-Pro-Leu-Gly-thioester-Leu-Leu-Gly-OEt. […] The change in absorbance at 405 nm is monitored on a Thermo Max microplate reader (molecular Devices, Menlo Park, Calif.) at room temperature (22° C.). […]
Some representative compounds of Formula I have been evaluated for their ability to inhibit MMP-13. Inhibitor activity versus other MMPs with the compounds may be determined using, for example, MMP-1FL, which refers to full length interstitial collagenase; MMP-2FL, which refers to full length Gelatinase A; MMP-3CD, which refers to the catalytic domain of stromelysin; MMP-7FL, which refers to full length matrilysin; MMP-9FL, which refers to full length Gelatinase B; MMP-13CD, which refers to the catalytic domain of collagenase 3; and MMP-14CD, which refers to the catalytic domain of MMP-14. […]

SMILES strings stand for the structures.

Turning to `O=C(O)c1ccc(Cn2ccc3ccc(C#CCn4ccnn4)cc3c2=O)cc1` [4-[1-oxo-7-(3-[1,2,3]triazol-1-ylprop-1-ynyl)-1H-isoquinolin-2-ylmethyl]benzoic acid], the IC50 was > 50 µM.
